Experimental data taken from the supplement of paper PMC10307832.

Tests used:
Test in all cases: relative viability (nuclei count vs DMSO), 5 days (fraction); higher = more cells survive
NCI-H1395 = test system: NCI-H1395
In short: (§1)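 Relative viability is defined as nuclei in treated wells over nuclei in vehicle wells. Duplicate plates were run and medians reported. Lung cancer cell lines in 1536-well plates were dosed by pin tool one day after seeding, with one drug or with a fixed anchor-drug dose plus five library-drug doses (not always all listed) in √10 steps, and nuclei were counted after 5 days.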

NCI-H2009 = test system: NCI-H2009
In short: as §1

SW 1573 = test system: SW 1573
In short: as §1

HCC-366 = test system: HCC-366
In short: as §1

NCI-H727 = test system: NCI-H727
In short: as §1

NCI-H23 = test system: NCI-H23
In short: as §1

NCI-H2228 = test system: NCI-H2228
In short: as §1

HCC-827 = test system: HCC-827
In short: as §1

CAL-12T = test system: CAL-12T
In short: as §1

LCLC-103H = test system: LCLC-103H
In short: as §1

HOP-62 = test system: HOP-62
In short: as §1

NCI-H460 = test system: NCI-H460
In short: as §1

NCI-H1355 = test system: NCI-H1355
In short: as §1

EMC-BAC-2 = test system: EMC-BAC-2
In short: as §1

COR-L 105 = test system: COR-L 105
In short: as §1

NCI-H1755 = test system: NCI-H1755
In short: as §1

HARA = test system: HARA
In short: as §1

NCI-H1975 = test system: NCI-H1975
In short: as §1

NCI-H1915 = test system: NCI-H1915
In short: as §1

NCI-H1437 = test system: NCI-H1437
In short: as §1

SK-LU-1 = test system: SK-LU-1
In short: as §1

A-427 = test system: A-427
In short: as §1

SMILES: NC(=O)Nc1cc(-c2cccc(F)c2)sc1C(=O)N[C@H]1CCCNC1 [AZD7762] + Cc1cc(Nc2cc(N3CCN(C)CC3)nc(Sc3ccc(NC(=O)C4CC4)cc3)n2)n[nH]1 [Tozasertib] (partner 0.1 µM)
- relative viability (NCI-H1395; first compound 0.01 µM): 0.771
- relative viability (NCI-H1395; first compound 0.03162 µM): 0.851
- relative viability (NCI-H1395; first compound 0.1 µM): 0.742
- relative viability (NCI-H1395; first compound 0.3162 µM): 0.673
- relative viability (NCI-H1395; first compound 1 µM): 0.386
- relative viability (NCI-H2009; first compound 0.01 µM): 0.857
- relative viability (NCI-H2009; first compound 0.03162 µM): 0.703
- relative viability (NCI-H2009; first compound 0.1 µM): 0.688
- relative viability (NCI-H2009; first compound 0.3162 µM): 0.543
- relative viability (NCI-H2009; first compound 1 µM): 0.384
- relative viability (SW 1573; first compound 0.01 µM): 0.225
- relative viability (SW 1573; first compound 0.03162 µM): 0.186
- relative viability (SW 1573; first compound 0.1 µM): 0.153
- relative viability (SW 1573; first compound 0.3162 µM): 0.15
- relative viability (SW 1573; first compound 1 µM): 0.117
- relative viability (HCC-366; first compound 0.01 µM): 0.144
- relative viability (HCC-366; first compound 0.03162 µM): 0.164
- relative viability (HCC-366; first compound 0.1 µM): 0.125
- relative viability (HCC-366; first compound 0.3162 µM): 0.119
- relative viability (HCC-366; first compound 1 µM): 0.0666
- relative viability (NCI-H727; first compound 0.01 µM): 0.662
- relative viability (NCI-H727; first compound 0.03162 µM): 0.619
- relative viability (NCI-H727; first compound 0.1 µM): 0.525
- relative viability (NCI-H727; first compound 0.3162 µM): 0.596
- relative viability (NCI-H727; first compound 1 µM): 0.35
- relative viability (NCI-H23; first compound 0.01 µM): 0.41
- relative viability (NCI-H23; first compound 0.03162 µM): 0.711
- relative viability (NCI-H23; first compound 0.1 µM): 0.558
- relative viability (NCI-H23; first compound 0.3162 µM): 0.33
- relative viability (NCI-H23; first compound 1 µM): 0.209
- relative viability (NCI-H2228; first compound 0.01 µM): 0.274
- relative viability (NCI-H2228; first compound 0.03162 µM): 0.464
- relative viability (NCI-H2228; first compound 0.1 µM): 0.321
- relative viability (NCI-H2228; first compound 0.3162 µM): 0.245
- relative viability (NCI-H2228; first compound 1 µM): 0.121
- relative viability (HCC-827; first compound 0.01 µM): 0.41
- relative viability (HCC-827; first compound 0.03162 µM): 0.449
- relative viability (HCC-827; first compound 0.1 µM): 0.409
- relative viability (HCC-827; first compound 0.3162 µM): 0.394
- relative viability (HCC-827; first compound 1 µM): 0.372
- relative viability (CAL-12T; first compound 0.01 µM): 0.402
- relative viability (CAL-12T; first compound 0.03162 µM): 0.332
- relative viability (CAL-12T; first compound 0.1 µM): 0.353
- relative viability (CAL-12T; first compound 0.3162 µM): 0.168
- relative viability (CAL-12T; first compound 1 µM): 0.0999
- relative viability (LCLC-103H; first compound 0.01 µM): 0.522
- relative viability (LCLC-103H; first compound 0.03162 µM): 0.442
- relative viability (LCLC-103H; first compound 0.1 µM): 0.524
- relative viability (LCLC-103H; first compound 0.3162 µM): 0.516
- relative viability (LCLC-103H; first compound 1 µM): 0.323
- relative viability (HOP-62; first compound 0.01 µM): 0.439
- relative viability (HOP-62; first compound 0.03162 µM): 0.376
- relative viability (HOP-62; first compound 0.1 µM): 0.378
- relative viability (HOP-62; first compound 0.3162 µM): 0.339
- relative viability (HOP-62; first compound 1 µM): 0.219
- relative viability (NCI-H460; first compound 0.01 µM): 0.506
- relative viability (NCI-H460; first compound 0.03162 µM): 0.394
- relative viability (NCI-H460; first compound 0.1 µM): 0.444
- relative viability (NCI-H460; first compound 0.3162 µM): 0.357
- relative viability (NCI-H460; first compound 1 µM): 0.031
- relative viability (NCI-H1355; first compound 0.01 µM): 0.621
- relative viability (NCI-H1355; first compound 0.03162 µM): 0.693
- relative viability (NCI-H1355; first compound 0.1 µM): 0.566
- relative viability (NCI-H1355; first compound 0.3162 µM): 0.666
- relative viability (NCI-H1355; first compound 1 µM): 0.532
- relative viability (EMC-BAC-2; first compound 0.01 µM): 0.295
- relative viability (EMC-BAC-2; first compound 0.03162 µM): 0.302
- relative viability (EMC-BAC-2; first compound 0.1 µM): 0.326
- relative viability (EMC-BAC-2; first compound 0.3162 µM): 0.321
- relative viability (EMC-BAC-2; first compound 1 µM): 0.282
- relative viability (COR-L 105; first compound 0.01 µM): 0.348
- relative viability (COR-L 105; first compound 0.03162 µM): 0.311
- relative viability (COR-L 105; first compound 0.1 µM): 0.328
- relative viability (COR-L 105; first compound 0.3162 µM): 0.3
- relative viability (COR-L 105; first compound 1 µM): 0.258
- relative viability (NCI-H1755; first compound 0.01 µM): 0.767
- relative viability (NCI-H1755; first compound 0.03162 µM): 0.572
- relative viability (NCI-H1755; first compound 0.1 µM): 0.687
- relative viability (NCI-H1755; first compound 0.3162 µM): 0.539
- relative viability (NCI-H1755; first compound 1 µM): 0.421
- relative viability (HARA; first compound 0.01 µM): 0.113
- relative viability (HARA; first compound 0.03162 µM): 0.107
- relative viability (HARA; first compound 0.1 µM): 0.12
- relative viability (HARA; first compound 0.3162 µM): 0.103
- relative viability (HARA; first compound 1 µM): 0.0534
- relative viability (NCI-H1975; first compound 0.01 µM): 0.762
- relative viability (NCI-H1975; first compound 0.03162 µM): 0.721
- relative viability (NCI-H1975; first compound 0.1 µM): 0.589
- relative viability (NCI-H1975; first compound 0.3162 µM): 0.469
- relative viability (NCI-H1975; first compound 1 µM): 0.367
- relative viability (NCI-H1915; first compound 0.01 µM): 0.471
- relative viability (NCI-H1915; first compound 0.03162 µM): 0.497
- relative viability (NCI-H1915; first compound 0.1 µM): 0.483
- relative viability (NCI-H1915; first compound 0.3162 µM): 0.415
- relative viability (NCI-H1915; first compound 1 µM): 0.368
- relative viability (NCI-H1437; first compound 0.01 µM): 0.408
- relative viability (NCI-H1437; first compound 0.03162 µM): 0.41
- relative viability (NCI-H1437; first compound 0.1 µM): 0.439
- relative viability (NCI-H1437; first compound 0.3162 µM): 0.372
- relative viability (NCI-H1437; first compound 1 µM): 0.366
- relative viability (SK-LU-1; first compound 0.01 µM): 0.374
- relative viability (SK-LU-1; first compound 0.03162 µM): 0.246
- relative viability (SK-LU-1; first compound 0.1 µM): 0.17
- relative viability (SK-LU-1; first compound 0.3162 µM): 0.128
- relative viability (SK-LU-1; first compound 1 µM): 0.142
- relative viability (A-427; first compound 0.01 µM): 0.215
- relative viability (A-427; first compound 0.03162 µM): 0.218
- relative viability (A-427; first compound 0.1 µM): 0.207
- relative viability (A-427; first compound 0.3162 µM): 0.179
- relative viability (A-427; first compound 1 µM): 0.175
